According to patent US20260062422A1 (Halda Therapeutics OpCo, Inc., priority 2022, published 2026):

Key:
[1] = test system: T-Rex 293 cell line SC cells lacking increased expression of progesterone receptor isoform B protein; test: Cellular growth inhibition, T-Rex 293 SC cells without doxycycline, Example 45; type: cell-based; conditions: T-Rex 293 SC cells not exposed to doxycycline, 72 hours treatment, CellTiter-Glo 2.0
Method: (§1) The following types of cells were prepared for this experiment: (i) a T-Rex 293 cell line having increased expression of progesterone receptor isoform B protein due to exposure to doxycycline and (ii) a T-Rex 293 cell line lacking increased expression of progesterone receptor isoform B protein. Ability of the test compounds to inhibit proliferation of the foregoing cell types was evaluated according to the procedures set forth below.
(§2) The doxycycline-inducible progesterone receptor isoform B protein expressing cell line was established using the following protocol: T-Rex 293 cells were purchased from Invitrogen (Cat #R71007) and transfected using Lipofectamine 2000 with the wild-type progesterone receptor B protein sequence cloned into the pcDNA4/TO vector. Transfected cells were selected using 400 μg/mL Zeocin (Invitrogen Cat #R25001). Following selection, single clones were raised and maintained in Dulbecco's Modified Eagle Medium (DMEM) supplemented with 10% w/w Tetracycline-free fetal bovine serum (FBS) and 250 μg/mL Zeocin. Clones were analyzed for expression of progesterone receptor isoform B protein in the presence and absence of 10 ng/mL doxycycline (Sigma Cat #D9891), and a single doxycycline-inducible clone (hereinafter “SC”) was selected for use in downstream assays.
(§3) The SC cells were seeded on poly-D-lysine coated, black clear-bottom 384-well plates at 2500/well, in 25 μL Phenol Red Free Dulbecco's Modified Eagle Medium (DMEM) supplemented with 10% w/w charcoal-dextran treated fetal bovine serum (FBS) and 1% w/w pen-strep, with or without 10 ng/mL doxycycline. Pen-Strep is a commercially available mixture of penicillin G and streptomycin, which is used in mammalian cell culture media to prevent bacterial contamination. Phenol Red Free Dulbecco's Modified Eagle Medium (DMEM) supplemented with 10% w/w charcoal-dextran treated fetal bovine serum (FBS) and 1% w/w pen-strep, with or without 10 ng/mL doxycycline is herein referred to as Treatment Medium. Following seeding of cells in the plates, the plates were spun at 300×g for 30 seconds, then equilibrated to room temperature for 30 minutes, and then deposited in a humidified tissue culture incubator maintained at 37° C. with 5% CO2.
(§4) At 24 hours after seeding of the cells, dilutions of test compound were prepared in DMSO and dissolved in Treatment Medium, to achieve a final DMSO concentration of 0.5% w/w, thereby providing the Test Compound Solution. A 25 μL aliquot of the Test Compound Solution was added to cells in the well plates. An equal volume of a solution containing DMSO and Treatment Medium was used as a negative control. Following treatment of cells with Test Compound Solution or said equal volume of a solution containing DMSO and Treatment Medium, the plates were spun at 300×g for 30 seconds, and then left in an incubator for 72 hours.
(§5) At the end of the treatment duration, cell viability was quantified with CellTiter-Glo 2.0 reagent (Promega Cat #G9243). For this purpose, plates were equilibrated to room temperature for 30 minutes, and then 25 μL of CellTiter-Glo 2.0 reagent was added to cells in the plate wells. Plates were then agitated on a shaker for two minutes at 500 rpm and subsequently incubated at room temperature for 10 minutes. Following incubation, the plates were spun at 3000×g for 30 seconds, then sealed with an optical adhesive cover, and luminescence readings were measured with an EnVision Plate Reader (Perkin Elmer).
(§6) Data was normalized using zero luminescence for baseline. A four-parameter non-linear regression curve fit was applied to dose-response data in GraphPad Prism data analysis software to determine the half-maximal growth inhibitory concentration (GI50) for each test compound.

[2] = Cellular growth inhibition, T-Rex 293 SC cells with doxycycline (progesterone receptor isoform B induced), Example 45; type: cell-based; conditions: progesterone receptor isoform B induced with 10 ng/mL doxycycline, 72 hours, CellTiter-Glo 2.0, Table 11
Method: as §1, §2, §3, §4, §5, §6

Compound	GI50 [1] [nM]	GI50 [2] [nM]
Cc1sc2c(c1C)C(c1ccc(Cl)cc1)=N[C@@H](CC(=O)NCCOCCOCCOCCOCCOCCOCCN(C)c1ncc(C(=O)N[C@H]3C(C)(C)[C@H](Oc4ccc(C#N)c(Cl)c4)C3(C)C)cn1)c1nnc(C)n1-2 [Compound I-4]	1500 to 3000	< 500
Cc1sc2c(c1C)C(c1ccc(Cl)cc1)=N[C@H](CC(=O)NCCOCCOCCOCCOCCOC1CCN(c3ncc(C(=O)N[C@H]4C(C)(C)[C@H](Oc5ccc(C#N)c(Cl)c5)C4(C)C)cn3)CC1)c1nnc(C)n1-2 [Compound I-14]	1500 to 3000	500 to 1500
Cc1sc2c(c1C)C(c1ccc(OCCOC3CCN(c4ncc(C(=O)N[C@H]5C(C)(C)[C@H](Oc6ccc(C#N)c(Cl)c6)C5(C)C)cn4)CC3)cc1)=N[C@@H](CC(=O)O)c1nnc(C)n1-2 [Compound I-38]	> 3000	> 3000
Cc1sc2c(c1C)C(c1cccc(OCCOC3CCN(c4ncc(C(=O)N[C@H]5C(C)(C)[C@H](Oc6ccc(C#N)c(Cl)c6)C5(C)C)cn4)CC3)c1)=N[C@@H](CC(=O)O)c1nnc(C)n1-2 [Compound I-41]	> 3000	> 3000
CCNC(=O)C[C@@H]1N=C(c2ccc(OCCOCCOC3CCN(c4ncc(C(=O)N[C@H]5C(C)(C)[C@H](Oc6ccc(C#N)c(Cl)c6)C5(C)C)cn4)CC3)cc2)c2c(sc(C)c2C)-n2c(C)nnc21 [Compound I-44]	< 500	< 500
CCNC(=O)C[C@@H]1N=C(c2cccc(OCCOC3CCN(c4ncc(C(=O)N[C@H]5C(C)(C)[C@H](Oc6ccc(C#N)c(Cl)c6)C5(C)C)cn4)CC3)c2)c2c(sc(C)c2C)-n2c(C)nnc21 [Compound I-46, N-((1r,3r)-3-(3-chloro-4-cyanophenoxy)-2,2,4,4-tetramethylcyclobutyl)-2-(4-(2-(3-((S)-6-(2-(ethylamino)-2-oxoethyl)-2,3,9-trimethyl-6H-thieno[3,2-f][1,2,4]triazolo[4,3-a][1,4]diazepin-4-yl)phenoxy)ethoxy)piperidin-1-yl)pyrimidine-5-carboxamide]	500 to 1500	< 500
Cc1sc2c(c1C)C(c1ccc(OC3CC4(CCN(c5ncc(C(=O)N[C@H]6C(C)(C)[C@H](Oc7ccc(C#N)c(Cl)c7)C6(C)C)cn5)CC4)C3)cc1)=N[C@@H](Cc1ncco1)c1nnc(C)n1-2 [Compound I-49, N-[3-(3-chloro-4-cyano-phenoxy)-2,2,4,4-tetramethyl-cyclobutyl]-2-[2-[4-[(9S)-4,5,13-trimethyl-9-(oxazol-2-ylmethyl)-3-thia-1,8,11,12-tetrazatricyclo[8.3.0.02,6]trideca-2(6),4,7,10,12-pentaen-7-yl]phenoxy]-7-azaspiro[3.5]nonan-7-yl]pyrimidine-5-carboxamide]	500 to 1500	< 500
CCNC(=O)C[C@@H]1N=C(c2ccc(C#CCN3CCN(c4ncc(C(=O)N[C@H]5C(C)(C)[C@H](Oc6ccc(C#N)c(Cl)c6)C5(C)C)cn4)CC3)cc2)c2c(sc(C)c2C)-n2c(C)nnc21 [Compound I-54, N-[3-(3-chloro-4-cyano-phenoxy)-2,2,4,4-tetramethyl-cyclobutyl]-2-[4-[3-[4-[(9S)-9-[2-(ethylamino)-2-oxo-ethyl]-4,5,13-trimethyl-3-thia-1,8,11,12-tetrazatricyclo[8.3.0.02,6]trideca-2(6),4,7,10,12-pentaen-7-yl]phenyl]prop-2-ynyl]piperazin-1-yl]pyrimidine-5-carboxamide]	< 500	< 500
Cc1sc2c(c1C)C(c1ccc(C#CCN3CCN(c4ncc(C(=O)N[C@H]5C(C)(C)[C@H](Oc6ccc(C#N)c(Cl)c6)C5(C)C)cn4)CC3)cc1)=N[C@@H](CC(=O)OC(C)(C)C)c1nnc(C)n1-2 [Compound I-55]	500 to 1500	< 500
CCNC(=O)C[C@@H]1N=C(c2ccc(OC3CCN(c4ncc(C(=O)N[C@H]5C(C)(C)[C@H](Oc6ccc(C#N)c(Cl)c6)C5(C)C)cn4)CC3)cc2)c2c(sc(C)c2C)-n2c(C)nnc21 [Compound I-61]	500 to 1500	< 500
